Data taken from patent US20210338609A1, “COMPOSITIONS FOR ADMINISTRATION TO ANIMALS TO INCREASE GUT NON-PROTEIN NITROGEN LEVELS” (D.I.T Technologies Ltd, priority 2018, published 2021).
Like-named read-outs stand apart in the source and are kept apart here.

Molecular target: T1, urease (Canavalia ensiformis, UniProt P07374)
T1 construct: purchased Siemens Azostix reagent test strip
Type: biochemical
Settings: for urea converted to ammonia: within 60 seconds
Text: In an embodiment, the physiologically acceptable composition may have a pH of substantially 2. […] The capacity of a composition containing urea to produce ammonia toxicity in ruminant animals can be measured with a urease test strip. These strips contain the enzyme urease. Urease is specific to urea and catalyses the breakdown to ammonia, and the strip undergoes a colour change when the urease strip is exposed to ammonia.
These strips contain the enzyme urease and the indicator bromothymol blue. Urease is specific to urea and breaks it down to ammonia. […] Therefore, the strip turns from yellow to green when the urease strip is exposed to urea. One strip was exposed to a solution of urea at the rate of 1 gram per litre.

T1 sequence (P07374 whole entry, looked up): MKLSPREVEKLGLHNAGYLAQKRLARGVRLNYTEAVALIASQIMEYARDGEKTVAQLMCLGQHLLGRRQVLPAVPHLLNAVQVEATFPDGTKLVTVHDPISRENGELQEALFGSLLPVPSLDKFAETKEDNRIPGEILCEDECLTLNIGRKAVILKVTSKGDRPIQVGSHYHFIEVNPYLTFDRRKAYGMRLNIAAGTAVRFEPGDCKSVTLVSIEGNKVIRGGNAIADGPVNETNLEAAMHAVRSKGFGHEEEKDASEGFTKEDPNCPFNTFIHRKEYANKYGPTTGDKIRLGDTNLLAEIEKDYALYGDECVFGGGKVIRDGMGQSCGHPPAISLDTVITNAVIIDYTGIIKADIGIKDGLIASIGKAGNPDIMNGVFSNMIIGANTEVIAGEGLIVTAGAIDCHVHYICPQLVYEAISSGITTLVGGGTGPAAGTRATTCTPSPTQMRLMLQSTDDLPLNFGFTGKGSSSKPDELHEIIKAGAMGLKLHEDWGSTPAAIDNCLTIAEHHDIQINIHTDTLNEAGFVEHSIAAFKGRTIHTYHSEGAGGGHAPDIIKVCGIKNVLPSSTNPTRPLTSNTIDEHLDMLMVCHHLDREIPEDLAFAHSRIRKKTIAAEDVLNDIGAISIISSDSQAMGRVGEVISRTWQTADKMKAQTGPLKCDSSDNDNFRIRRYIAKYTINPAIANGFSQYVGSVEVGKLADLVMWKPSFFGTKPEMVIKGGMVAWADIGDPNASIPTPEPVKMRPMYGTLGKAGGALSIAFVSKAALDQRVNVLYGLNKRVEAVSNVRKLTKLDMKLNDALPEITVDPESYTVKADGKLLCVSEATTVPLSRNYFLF

SMILES	colour change of urease test strip (ammonia production) (urea phosphate at 5 grams per litre)	urea converted to ammonia (urea phosphate, 5 grams per litre)	colour change of urease test strip (ammonia production) (solution of urea at 1 gram per litre)	urea converted to ammonia (urea only mix, 1 gram per litre)
NC(N)=O.O=P(O)(O)O [urea phosphate]	unchanged	none		
NC(N)=O [urea]			turned from the unexposed yellow colour to a deep green	all
